Test results taken from ChEMBL document CHEMBL1201862, “PubChem BioAssay data set” (2004).
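Where inhibition never reached the appropriate level, the endpoint shown equals the highest concentration tested. Otherwise, values were interpolated linearly from a five-concentration, 48-hour dose response in 96-well plates. Here, GI50 denotes the concentration required for 50% inhibition of growth.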 Active and inactive are the calls of the source. Rule as the data show it: active = GI50 up to about 1.1 µM and inactive = higher.

Columns and labels:
Assay in all cases: inhibition of tumour cell growth, NCI panel, 48 h
ACHN = tested on: ACHN
OVCAR-3 = tested on: OVCAR-3
MOLT-4 = tested on: MOLT-4
NCI-H522 = tested on: NCI-H522
NCI-H23 = tested on: NCI-H23
CAKI-1 = tested on: CAKI-1
T47D = tested on: T47D
MDA-MB-231 = tested on: MDA-MB-231
K562 = tested on: K562
HCC 2998 = tested on: HCC 2998
UACC-62 = tested on: UACC-62
LOX IMVI = tested on: LOX IMVI
SK-MEL-2 = tested on: SK-MEL-2
MDA-MB-435 = tested on: MDA-MB-435
OVCAR-4 = tested on: OVCAR-4
KM12 = tested on: KM12
UACC-257 = tested on: UACC-257
786-0 = tested on: 786-0
HL-60 = tested on: HL-60

SMILES	GI50 (ACHN)	GI50 (OVCAR-3)	GI50 (MOLT-4)	GI50 (NCI-H522)	GI50 (NCI-H23)	GI50 (CAKI-1)	GI50 (T47D)	GI50 (MDA-MB-231)	GI50 (K562)	GI50 (HCC 2998)	GI50 (UACC-62)	GI50 (LOX IMVI)	GI50 (SK-MEL-2)	GI50 (MDA-MB-435)	GI50 (OVCAR-4)	GI50 (KM12)	GI50 (UACC-257)	GI50 (786-0)	GI50 (HL-60)
C=C(C)C(=O)O[C@@H]1C[C@@]2(C)O[C@@H]2C[C@H](O)/C(C)=C/[C@H]2OC(=O)C(=C)[C@@H]21	47.2 µM (inactive)	47.9 µM (inactive)	28.8 µM (inactive)	12.6 µM (inactive)	> 100 µM (inactive)	28.6 µM (inactive)	50.7 µM (inactive)	> 100 µM (inactive)	29 µM (inactive)	> 100 µM (inactive)	74.5 µM (inactive)	29.9 µM (inactive)	49.1 µM (inactive)	59.6 µM (inactive)	19.9 µM (inactive)	> 100 µM (inactive)	> 100 µM (inactive)	38.9 µM (inactive)	–
C#CC(O)/C=C/C(O)CCCC(O)CC#CC(O)C#CCCCCC(O)/C=C/CCCCCC(=O)CCCCCCCCCCCCCC(O)C(O)C#CC(=O)O (stereo not drawn)	> 25 µM (inactive)	–	12.8 µM (inactive)	4.88 µM (inactive)	> 25 µM (inactive)	> 25 µM (inactive)	> 25 µM (inactive)	> 25 µM (inactive)	> 25 µM (inactive)	> 25 µM (inactive)	> 25 µM (inactive)	4.6 µM (inactive)	> 25 µM (inactive)	> 25 µM (inactive)	15.8 µM (inactive)	> 25 µM (inactive)	> 25 µM (inactive)	> 25 µM (inactive)	> 25 µM (inactive)
COC(=O)[C@H](CCSC)NC(=O)c1ccc(CNC(=O)/C(C)=C/c2ccccc2)cc1	44.3 µM (inactive)	60.8 µM (inactive)	> 100 µM (inactive)	10.8 µM (inactive)	45.8 µM (inactive)	30.6 µM (inactive)	21.8 µM (inactive)	46.8 µM (inactive)	> 100 µM (inactive)	9.48 µM (inactive)	32.3 µM (inactive)	33.1 µM (inactive)	20.7 µM (inactive)	74.5 µM (inactive)	31.1 µM (inactive)	82.4 µM (inactive)	20.7 µM (inactive)	20.8 µM (inactive)	–
C/C(C=O)=N\Nc1cc(C)c2ccccc2n1	16.3 µM (inactive)	2.62 µM (inactive)	16.2 µM (inactive)	17.1 µM (inactive)	12.4 µM (inactive)	16.9 µM (inactive)	15.8 µM (inactive)	15.1 µM (inactive)	13.4 µM (inactive)	15.1 µM (inactive)	14.7 µM (inactive)	13.2 µM (inactive)	15.2 µM (inactive)	16 µM (inactive)	12.8 µM (inactive)	15 µM (inactive)	17.6 µM (inactive)	14.2 µM (inactive)	–
COC(=O)c1cc2c3c(cc(NCCN)c2[nH]1)N(C(=O)c1cc2cc(OC)c(OC)c(OC)c2[nH]1)CC3CCl (stereo not drawn)	0.0889 µM (active)	0.0728 µM (active)	0.0251 µM (active)	< 0.01 µM (active)	0.0659 µM (active)	0.144 µM (active)	0.031 µM (active)	0.0638 µM (active)	0.0247 µM (active)	0.0982 µM (active)	0.0594 µM (active)	0.0186 µM (active)	0.0628 µM (active)	0.152 µM (active)	0.0925 µM (active)	0.205 µM (active)	0.214 µM (active)	0.0423 µM (active)	–
O=C1CCCCC/C1=C\c1ccc(F)cc1	> 100 µM (inactive)	> 100 µM (inactive)	67.3 µM (inactive)	51.5 µM (inactive)	> 100 µM (inactive)	> 100 µM (inactive)	> 100 µM (inactive)	> 100 µM (inactive)	> 100 µM (inactive)	> 100 µM (inactive)	40.3 µM (inactive)	94 µM (inactive)	> 100 µM (inactive)	74.1 µM (inactive)	95.5 µM (inactive)	> 100 µM (inactive)	52.2 µM (inactive)	> 100 µM (inactive)	–
COc1cc(CNc2c3ccccc3nc3ccccc23)cc(OC)c1OC	3.07 µM (inactive)	5.21 µM (inactive)	1.37 µM (inactive)	2.55 µM (inactive)	3.46 µM (inactive)	2.74 µM (inactive)	6.38 µM (inactive)	5.42 µM (inactive)	1.32 µM (inactive)	2.78 µM (inactive)	2.43 µM (inactive)	2.39 µM (inactive)	2.23 µM (inactive)	3.5 µM (inactive)	2.1 µM (inactive)	6.21 µM (inactive)	3.11 µM (inactive)	2.6 µM (inactive)	–
CCOC(=O)c1ccc(Nc2nc3cc(C(F)(F)F)ccc3nc2-c2ccccc2)cc1	17.7 µM (inactive)	53.6 µM (inactive)	> 10 µM (inactive)	37.6 µM (inactive)	40.3 µM (inactive)	42.9 µM (inactive)	35.7 µM (inactive)	79.6 µM (inactive)	> 100 µM (inactive)	22.8 µM (inactive)	11.1 µM (inactive)	> 100 µM (inactive)	–	69.3 µM (inactive)	–	28.4 µM (inactive)	> 100 µM (inactive)	18.7 µM (inactive)	50.2 µM (inactive)
CCOC(=O)c1nnsc1NC(=O)NN	> 100 µM (inactive)	> 100 µM (inactive)	> 10 µM (inactive)	> 100 µM (inactive)	> 100 µM (inactive)	> 100 µM (inactive)	> 100 µM (inactive)	25.4 µM (inactive)	41.1 µM (inactive)	> 100 µM (inactive)	> 100 µM (inactive)	82.2 µM (inactive)	> 100 µM (inactive)	> 100 µM (inactive)	–	> 100 µM (inactive)	> 100 µM (inactive)	89.3 µM (inactive)	> 100 µM (inactive)
Cc1oc2ccccc2c(=O)c1Cn1nnc2ccccc21	41.6 µM (inactive)	30.6 µM (inactive)	37.2 µM (inactive)	–	> 100 µM (inactive)	–	10.6 µM (inactive)	91.4 µM (inactive)	56.6 µM (inactive)	> 100 µM (inactive)	41.7 µM (inactive)	73.3 µM (inactive)	> 100 µM (inactive)	41.3 µM (inactive)	53.3 µM (inactive)	> 100 µM (inactive)	26.4 µM (inactive)	> 100 µM (inactive)	48.5 µM (inactive)
CCOc1cc(-c2nc3cc(F)ccc3s2)ccc1O	16 µM (inactive)	18.5 µM (inactive)	–	11.5 µM (inactive)	18 µM (inactive)	16.9 µM (inactive)	11.6 µM (inactive)	21.8 µM (inactive)	< 0.01 µM (active)	26 µM (inactive)	16.6 µM (inactive)	16 µM (inactive)	17.2 µM (inactive)	18.2 µM (inactive)	26.2 µM (inactive)	17 µM (inactive)	16.8 µM (inactive)	14.4 µM (inactive)	–
COc1ccc(-n2sc3ncc([N+](=O)[O-])cc3c2=O)cc1	> 100 µM (inactive)	> 100 µM (inactive)	> 100 µM (inactive)	34.4 µM (inactive)	> 100 µM (inactive)	–	> 100 µM (inactive)	> 100 µM (inactive)	–	> 100 µM (inactive)	> 100 µM (inactive)	> 100 µM (inactive)	> 100 µM (inactive)	> 100 µM (inactive)	> 100 µM (inactive)	> 100 µM (inactive)	> 100 µM (inactive)	> 100 µM (inactive)	> 100 µM (inactive)
CCC(CON(C)c1ccccc1)(SC)SC	> 100 µM (inactive)	–	> 100 µM (inactive)	> 100 µM (inactive)	> 100 µM (inactive)	> 100 µM (inactive)	13.3 µM (inactive)	> 100 µM (inactive)	–	> 100 µM (inactive)	> 100 µM (inactive)	> 100 µM (inactive)	28.7 µM (inactive)	> 100 µM (inactive)	> 100 µM (inactive)	> 100 µM (inactive)	> 100 µM (inactive)	> 100 µM (inactive)	99.1 µM (inactive)
CCOC(=O)C1=CNC(C(=O)OCC)C1c1cccn1-c1ccc(Cl)cc1[N+](=O)[O-] (stereo not drawn)	30.3 µM (inactive)	10.6 µM (inactive)	22.1 µM (inactive)	16 µM (inactive)	36.6 µM (inactive)	20 µM (inactive)	24.2 µM (inactive)	10 µM (inactive)	23.8 µM (inactive)	16.3 µM (inactive)	15.7 µM (inactive)	15.9 µM (inactive)	15.4 µM (inactive)	21.5 µM (inactive)	31.3 µM (inactive)	20.2 µM (inactive)	24.4 µM (inactive)	19.1 µM (inactive)	–
Cc1ccc2c(c1)C(=O)C1(C2)Cc2c(C)cccc2C1=O (stereo not drawn)	> 100 µM (inactive)	> 100 µM (inactive)	> 100 µM (inactive)	> 100 µM (inactive)	> 100 µM (inactive)	> 100 µM (inactive)	> 100 µM (inactive)	> 100 µM (inactive)	> 100 µM (inactive)	> 100 µM (inactive)	> 100 µM (inactive)	> 100 µM (inactive)	–	> 100 µM (inactive)	> 100 µM (inactive)	> 100 µM (inactive)	> 100 µM (inactive)	> 100 µM (inactive)	> 100 µM (inactive)
COc1cc2cc(C(=O)N3CC(CCl)c4c3cc(N)c3ccccc43)[nH]c2cc1OCCN(C)C (stereo not drawn)	< 0.005 µM (active)	0.00734 µM (active)	0.0561 µM (active)	< 0.005 µM (active)	< 0.005 µM (active)	< 0.005 µM (active)	< 0.005 µM (active)	< 0.005 µM (active)	< 0.005 µM (active)	< 0.005 µM (active)	< 0.005 µM (active)	< 0.005 µM (active)	< 0.005 µM (active)	< 0.005 µM (active)	0.00628 µM (active)	< 0.005 µM (active)	0.00993 µM (active)	< 0.005 µM (active)	–
